Patent publication US9618524B2, “Method, composition, isolation and identification of a plaque particle and related biomarker” (Plaxgen Inc., priority 2012, dated 2017)

Legend:
Assay in all cases: Mass spectroscopy proteomics, semi-quantitative binding affinity of serum proteins (plaqueproteome, Table 2)
Conditions in all cases: higher number = stronger affinity
[1] = biological target: T1, Abeta-42 plaque particles (Homo sapiens, UniProt P05067)
T1 construct: Abeta 1-42
Method: Next to isolate serum derived Abeta-42 plaque particles, the plasma or serum samples obtained from AD subjects were first centrifuged at 5,000 rpm for 5 min and the supernatants were transferred to new centrifuge tubes. Next, the supernatants were diluted in PBS to make 50% of the serum and plasma samples and used for incubation with Abeta-42 plaque oligomers/aggregates. Each assay was performed in 1 mL reaction (800 μL of 50% plasma or serum) and 200 μL (30 μg) of the Abeta-42 aggregates and the mixtures were incubated at 37° C. for 1 hr. To the mixture Thioflavin S dye (120 μg) was added and the sample was incubated for additional 30 min at 37° C. After the incubation, the mixture was directly used for sample acquisition using flow cytometer (FACS ARIA II, BD Biosciences, San Jose, Calif.). After initial detection of Abeta-42 plaque particles in the acquisition blot, gates were drawn in fluorescent dot blot to separately sort and isolate fluorescently labeled Abeta-42 particles.
(§1) For preparing trypsin digested peptide sequences, the isolated plaque particles were centrifuged at 10000 rpm for 5 min and the pellet containing plaque particles was resuspended in 100 μl PBS buffer. Stock solutions of digestion buffer (Ammonium Biocarbonate 50 mM), reducing buffer (DDT 100 mM) and alkylation buffer (lodoaceamide 100 mM) were prepared and stored at −20° C. for up to two months. For trypsin digestion, 100 μl of each plaque particles (2000 of Abeta-42, cholesterol, Tau and alpha-synuclein) were precipitated using cold acetone −80° C. by adding 4X's the volume. The samples were placed on dry ice for 10 min with intermittent vortex. Next, the samples were centrifuged at 4° C. at 10000 G for 10 min. Top layer of acetone was carefully removed from the tube with care not to disturb the plaque particles pellet. The samples were speed-vac for 10 min to ensure all acetone has been boiled away. The plaque particles pellet were reconstituted with 15 μl 8M Urea 100 mM Ammonium bicarbonate stock and 20 μl protease max solution. The protease max solution (Promega, Madison, Wis.) was prepared from stock by adding 60 μl 50 mM Ammonium bicarbonate and used for 3 solution digests (20 μl each). […] The tubes were incubated at 55° C. for 30 minutes. The tubes were then removed and brought to the room temperature followed by addition of 3.2 μl of 1M acrylamide and incubated at room temperature for 30 minutes. To the sample, 63 μL of 50 mM Ammonium bicarbonate was added for a final volume of 98 μl and 2 μl of trypsin (10 μg, Trypsin/Lys C Mix). After mixing the solution with pipet the samples were incubated at 37° C. overnight. After the overnight digest, the tryptic digest were quenched and acidified by adding 10 μl of 50% formic acid/water stock dilution. The samples were centrifuged at 10000 G for 2 minutes and purified using stage tip and used for MS/Mass analysis.
(§2) All MS/MS samples were analyzed using Sequest (Thermo Fisher Scientific, San Jose, Calif., USA; version 1.0). Sequest was set up to search the SUMS_uniprot_Human database (35847 entries) assuming the digestion enzyme strict trypsin. Sequest was searched with a fragment ion mass tolerance of 1.00 Da and a parent ion tolerance of 20 PPM. Propionamide of cysteine was specified in Sequest as a fixed modification. Oxidation of methionine and phospho of serine, threonine and tyrosine were specified in Sequest as variable modifications.
Scaffold (version Scaffold_4.2.1, Proteome Software Inc., Portland, Oreg.) was used to validate MS/MS based peptide and protein identifications. […] Protein probabilities were assigned by the Protein Prophet algorithm (Nesvizhskii, Al et al 2003). […] Proteins sharing significant peptide evidence were grouped into clusters. Proteins were annotated with GO terms from NCBI (downloaded Jan. 17, 2014).

[2] = system: High Density cholesterol (Chl Large) plaque particles; parameters: species or system human
Method: (§3) The goal was to isolate plaque particles synthesized in the bio-fluids in a relatively pure form to enable their subsequent use for identification of components that contribute to the plaque formation. In order to isolate cholesterol plaque particles, the plasma or serum samples obtained from atherosclerotic subjects were first centrifuged at 5,000 rpm for 5 min and the supernatants were transferred to new centrifuge tubes. Next, the supernatants were diluted in PBS to make 50% of the serum and used for incubation with cholesterol oligomers/aggregates. Each assay was performed in 1 mL reaction (800 μL of 50% plasma or serum) and 200 μL (30 μg) of the Cholesterol aggregates and the mixtures were incubated at 37° C. for 1 hr After the incubation, the mixture was directly used for sample acquisition using flow cytometer (FACS ARIA II, BD Biosciences, San Jose, Calif.). […] In order to isolate these fractions, three sets of gates were drawn in the acquisition blot to separately sort and isolate High density or high complex cholesterol particles, Low density or low complex cholesterol particles and both High and low density cholesterol particles together.
as §1, §2
(§4) Scaffold (version Scaffold_4.2.1, Proteome Software Inc., Portland, Oreg.) was used to validate MS/MS based peptide and protein identifications. […] Protein probabilities were assigned by the Protein Prophet algorithm (Nesvizhskii, Al et al 2003).

[3] = system: Low density cholesterol (Chl small) plaque particles; parameters: species or system human
Method: as §3, §1, §2, §4

[4] = biological target: T2, alpha-synuclein plaque particles (Homo sapiens, UniProt P37840)
T2 construct: 140 amino acids polypeptide
Method: To prepare oligomers/aggregates of human alpha-synuclein (140 amino acids polypeptide), 1 mg of the recombinant alpha-synuclein protein was suspended in 1 mL of PBS and the sample was incubated at 37° C. for 2 hrs. After incubation, all the samples were centrifuged for 5 min. at 5000 rpm to remove precipitate, if any, and the supernatant containing oligomers/aggregates were used in vitro plaque particles formation assay. For detecting alpha-synuclein plaque particles Thioflavin S (Ex/Em=430 nm/550 nm) amyloid binding fluorescent dye (10 μg) was used.
Similarly, to isolate alpha-synuclein plaque particles, diluted plasma or serum samples obtained from AD subjects were used for incubation with alpha-synuclein plaque oligomers/aggregates. Each assay was performed in 1 mL reaction (800 μL of 50% plasma or serum) and 200 μL (30 μg) of the alpha-synuclein aggregates and the mixtures were incubated at 37° C. for 1 hr. To the mixture Thioflavin S dye (120 μg) was added and the sample was incubated for additional 30 min at 37° C. After the incubation, the mixture was directly used for sample acquisition using flow cytometer (FACS ARIA II, BD Biosciences, San Jose, Calif.). After initial detection of alpha-synuclein plaque particles, gates were drawn in the acquisition blot to separately sort and isolate fluorescently labeled alpha-synuclein particles.
as §1, §2
Scaffold (version Scaffold_4.2.1, Proteome Software Inc., Portland, Oreg.) was used to validate MS/MS based peptide and protein identifications.

Tau plaque particles = system: Tau plaque particles; parameters: species or system human
Method: For Tau-74 (74-102) (Exon 3/Insert 2 domain) preparation, 1 mg of Tau-74 was suspended in 1 mL of PBS and the sample was incubated at 37° C. for 2 hrs. Similarly for preparing Tau-275 (275-305) (Repeat 2 domain) 1 mg of the peptide was suspended in 1 mL of PBS and the sample was incubated at 37° C. for 2 hrs. After incubation, all the samples were centrifuged for 5 min. at 5000 rpm to remove precipitate, if any, and the supernatant containing oligomers/aggregates were used for in vitro amyloid plaque particles formation assay. For detecting Tau plaque particles, Thioflavin S (Ex/Em=430 nm/550 nm) amyloid binding fluorescent dye (10 μg) was used in the assay.
Next, to isolate Tau plaque particles, as performed for Abeta-42 and Abeta-28 plaque particles isolation, diluted serum samples were used for incubation separately with Tau-45, Tau-74 and Tau-275 oligomers/aggregates. Each assay was performed in 1 mL reaction (800 μL of 50% plasma or serum) and 200 μL (30 μg) of each Tau aggregates and the mixtures were incubated at 37° C. for 1 hr. To the each mixture Thioflavin S dye (120 μg) was added and the sample was incubated for additional 30 min at 37° C. After the incubation, each sample was directly used for sample acquisition using flow cytometer (FACS ARIA II, BD Biosciences, San Jose, Calif.). After initial detection of Tau plaque particles, gates were drawn in the acquisition blot to separately sort and isolate fluorescently labeled Tau plaque particles.
as §1, §2

Substance	Semi-quantitative analysis of proteins binding to different plaque particles: Abeta-42 [1]	Semi-quantitative analysis of proteins binding to different plaque particles: Chl Large [2]	Semi-quantitative analysis of proteins binding to different plaque particles: Chl small [3]	Semi-quantitative analysis of proteins binding to different plaque particles: Synuclein [4]	Semi-quantitative analysis of proteins binding to different plaque particles: Tau (Tau plaque particles)
Alpha-1-acid glycoprotein 1	12	9	8	7	11
Alpha-1-antitrypsin		22	21	20	28
Alpha-1B-glycoprotein	4	7	7	11	6
Alpha-2-macroglobulin	32	43	43	44	45
Antithrombin-III	5	8	6	9	6
Apolipoprotein A-I	19	21	21	18	14
Apolipoprotein A-II	5	8	6	7	10
Apolipoprotein B-100	62	47	51	42	65
Apolipoprotein C-I (TPDVSSALDKLKEFGNTLEDKARELISRIKQSELSAKMREWFSETFQKVKEKLKIDS)	2	1	1	0	1
Apolipoprotein C-III	4	4	4	1	5
Apolipoprotein D	0	2	2	1	3
Apolipoprotein E		7	9	8	13
Cathepsin D	5	0	0	0	0
Cluster of Alpha-1-antitrypsin		22	21	20	28
